Counter-ions that a name gives are not always drawn. Like-named read-outs stand apart in the source and are kept apart here.
Legend:
human DGKζ = target: T1, human DGKζ (Homo sapiens, UniProt Q13574); assay: DGKζ LIPGLO assay (extruded liposome substrate), in vitro DGK inhibition; type: biochemical; conditions: read-out: DGKz LIPGLO IC50
T1 construct: TVMV protease cleavage site (C); Hexa-His (C); made in house; host or cells: Sf9 insect cells (baculovirus, Bac-to-Bac)

Human venous whole blood = assay: Human whole blood IFN-γ assay; type: cell-based; conditions: human whole blood, read-out: INFg Whole Blood Normalized Agonist EC50;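 also: blood from healthy donors exposed to compound for 1 h before stimulation with anti-CD3 and anti-CD28 at 1 µg/mL each, IFN-γ quantified in supernatant by AlphaLISA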
Description: Human Whole Blood IFN-γ Assay
Human venous whole blood (22.5 μL per well), obtained from healthy donors, was pre-treated with compounds for one hour at 37° C. in a humidified 95% air/5% CO2 incubator. The blood was stimulated with 2.5 μL anti-human CD3 and anti-CD28 mAb at a final concentration of 1 μg/mL each for 24 hours at 37° C. IFN-γ in the supernatants was measured using AlphLISA kit (Cat # AL217).

human DGKα = target: T2, human DGKα (Homo sapiens, UniProt P23743); assay: DGKα LIPGLO assay (extruded liposome substrate), in vitro DGK inhibition; type: biochemical; conditions: read-out: DGKa LIPGLO IC50
T2 construct: TVMV protease cleavage site (C); Hexa-His (C); made in house; host or cells: Sf9 insect cells (baculovirus, Bac-to-Bac)
T2 sequence (P23743 with tags, fused parts or gaps): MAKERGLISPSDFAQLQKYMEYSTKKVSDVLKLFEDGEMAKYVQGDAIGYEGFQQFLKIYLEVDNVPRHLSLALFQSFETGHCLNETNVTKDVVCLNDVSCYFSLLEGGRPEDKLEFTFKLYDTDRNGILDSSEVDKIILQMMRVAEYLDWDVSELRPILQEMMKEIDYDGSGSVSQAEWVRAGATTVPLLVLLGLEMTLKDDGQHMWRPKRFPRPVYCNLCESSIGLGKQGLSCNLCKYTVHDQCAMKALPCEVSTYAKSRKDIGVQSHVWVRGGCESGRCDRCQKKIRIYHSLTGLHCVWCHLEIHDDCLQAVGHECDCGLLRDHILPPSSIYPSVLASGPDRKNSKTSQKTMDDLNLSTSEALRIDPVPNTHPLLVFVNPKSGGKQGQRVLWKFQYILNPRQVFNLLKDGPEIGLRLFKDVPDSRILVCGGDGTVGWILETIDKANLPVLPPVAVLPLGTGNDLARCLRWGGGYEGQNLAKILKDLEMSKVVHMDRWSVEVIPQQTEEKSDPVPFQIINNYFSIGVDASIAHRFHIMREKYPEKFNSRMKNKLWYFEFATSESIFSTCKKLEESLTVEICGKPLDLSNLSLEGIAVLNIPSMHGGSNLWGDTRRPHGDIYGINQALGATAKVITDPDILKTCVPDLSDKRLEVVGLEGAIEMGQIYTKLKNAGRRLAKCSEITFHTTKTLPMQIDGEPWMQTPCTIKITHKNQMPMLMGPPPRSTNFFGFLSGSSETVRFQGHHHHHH

[1] = Homo sapiens, 24 h, normalized to 3 μM reference compound with anti-CD3 plus anti-CD28 as 100% activation
[2] = Homo sapiens, 24 h, anti-CD3 plus anti-CD28, 24 hours, 3 μM reference compound = 100% activation
[3] = normalized to 3 μM reference compound with anti-CD3 plus anti-CD28 as 100% activation
[4] = anti-CD3 plus anti-CD28, 24 hours, 3 μM reference compound = 100% activation

T1 sequence (Q13574 with tags, fused parts or gaps isoform Q13574-4): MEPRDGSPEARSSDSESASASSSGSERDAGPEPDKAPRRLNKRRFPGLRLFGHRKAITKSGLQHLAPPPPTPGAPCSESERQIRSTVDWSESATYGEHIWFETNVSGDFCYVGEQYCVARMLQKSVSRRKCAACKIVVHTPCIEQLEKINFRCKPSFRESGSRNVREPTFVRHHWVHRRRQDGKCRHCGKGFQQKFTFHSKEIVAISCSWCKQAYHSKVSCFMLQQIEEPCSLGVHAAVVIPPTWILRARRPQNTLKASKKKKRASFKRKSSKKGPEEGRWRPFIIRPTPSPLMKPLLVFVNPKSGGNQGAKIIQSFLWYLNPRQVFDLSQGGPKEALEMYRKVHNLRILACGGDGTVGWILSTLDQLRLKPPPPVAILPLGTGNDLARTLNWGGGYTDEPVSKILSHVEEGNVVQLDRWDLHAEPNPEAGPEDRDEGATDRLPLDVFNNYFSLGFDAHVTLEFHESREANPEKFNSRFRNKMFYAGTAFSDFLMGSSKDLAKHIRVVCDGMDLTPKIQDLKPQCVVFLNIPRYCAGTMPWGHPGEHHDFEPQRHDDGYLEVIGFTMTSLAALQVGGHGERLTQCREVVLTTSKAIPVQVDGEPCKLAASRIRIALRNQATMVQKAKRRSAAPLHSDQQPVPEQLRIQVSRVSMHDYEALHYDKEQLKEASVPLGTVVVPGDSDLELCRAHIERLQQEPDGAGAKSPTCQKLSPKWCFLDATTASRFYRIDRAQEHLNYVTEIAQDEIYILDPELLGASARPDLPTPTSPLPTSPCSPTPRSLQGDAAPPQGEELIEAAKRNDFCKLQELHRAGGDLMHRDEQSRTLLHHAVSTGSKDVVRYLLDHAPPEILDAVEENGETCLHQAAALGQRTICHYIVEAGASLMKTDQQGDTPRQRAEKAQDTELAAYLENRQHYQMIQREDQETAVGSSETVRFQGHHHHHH

Structure (SMILES)	IC50 (human DGKζ; liposome (LIPGLO) assay) [nM]	IC50 (human DGKα; liposome (LIPGLO) assay) [nM]	IC50 (human DGKζ; DGKζ liposome (LIPGLO) assay) [nM]	IC50 (human DGKα; DGKα liposome (LIPGLO) assay) [nM]	EC50 (Human venous whole blood; [3]) [nM]	also measured
CC(c1ccc(C(F)(F)F)cc1F)N1C[C@H](C)N(c2cc(=O)n(C)c3ccc(C#N)nc23)C[C@H]1C (stereo partly drawn) [Example 431, 8-((2S,5R)-4-(1-(2-fluoro-4-(trifluoromethyl)phenyl)ethyl)-2,5-dimethylpiperazin-1-yl)-5-methyl-6-oxo-5,6-dihydro-1,5-naphthyridine-2-carbonitrile]	1100	7300				EC50 (Human venous whole blood; [1]): 1600 nM
C[C@@H]1CN(c2cc(=O)n(C)c3ccc(C#N)nc23)[C@@H](C)CN1C(c1ccc(F)cc1)c1nnc(C2CC2)o1 (single isomer, unassigned) [Example 763]			760	4500		EC50 (Human venous whole blood; [2]): 1800 nM
Cn1c(=O)cc(N2CCN(C(c3ccc(F)cc3)c3ccc(F)cc3)CC2c2ccccc2)c2nc(C#N)ccc21 (single isomer, unassigned) [Example 155, 8-(4-(bis(4-fluorophenyl)methyl)-2-phenylpiperazin-1-yl)-5-methyl-6-oxo-5,6-dihydro-1,5-naphthyridine-2-carbonitrile]	240000	240000			20000	
Cc1cccc(C(c2cccc(F)c2)N2C[C@H](C)N(c3cc(=O)n(C)c4ccc(C#N)nc34)C[C@H]2C)n1 (single isomer, unassigned) [Example 470]	2000	13000				EC50 (Human venous whole blood; [1]): 370 nM
CCC(c1ccc(C2CC2)cc1F)N1C[C@H](CC)N(c2cc(=O)n(C)c3ccc(C#N)nc23)C[C@H]1CC (single isomer, unassigned) [Example 1359]	25	52			44	
C[C@@H]1CN(c2c(C#N)c(=O)n(C)c3ccc(C#N)nc23)[C@@H](C)CN1C(c1ccc(F)cc1)c1ccc(C#N)cc1 (single isomer, unassigned) [Example 823]			40000	18000		EC50 (Human venous whole blood; [4]): 7600 nM
CC[C@H]1CN(C(C)c2ccc(F)cc2F)[C@H](CC)CN1c1cc(=O)n(C)c2ccc(C#N)nc12 (single isomer, unassigned) [Example 1055]	16	17			16	
CCC(c1ccc(OC(F)(F)F)cc1)N1C[C@H](C)N(c2cc(=O)n(C)c3ccc(C#N)nc23)C[C@H]1CC (single isomer, unassigned) [Example 1199]	37	20			34	
CC[C@H]1CN(C(c2ccc(F)cc2)c2cocn2)[C@H](CC)CN1c1cc(=O)n(C)c2ccc(C#N)nc12 (single isomer, unassigned) [Example 1068]	92	43			250	
C[C@@H]1CN(c2cc(=O)n(C)c3ccc(C#N)nc23)[C@@H](C)CN1Cc1cnoc1 [Example 1428]	53000	34000				EC50 (Human venous whole blood; [1]): 20000 nM
CC[C@H]1CN(C(c2ccc(F)cc2)c2ccon2)[C@H](CC)CN1c1cc(=O)n(C)c2ccc(C#N)nc12 (single isomer, unassigned) [Example 1073]	120	33			210	
C[C@@H]1CN(c2cc(=O)n(C)c3ccc(C#N)nc23)[C@@H](C)CN1Cc1cccc2c1cnn2C [Example 475, 8-((2S,5R)-2,5-dimethyl-4-((1-methyl-1H-indazol-4-yl)methyl)piperazin-1-yl)-5-methyl-6-oxo-5,6-dihydro-1,5-naphthyridine-2-carbonitrile]	2000	16000				EC50 (Human venous whole blood; [1]): 20000 nM
Cc1ccc(C(c2ccc(F)cc2)N2C[C@H](C)N(c3c(F)c(=O)n(C)c4ccc(C#N)nc34)C[C@H]2C)cc1 (stereo partly drawn) [Example 332, 7-fluoro-8-((2S,5R)-4-((4-fluorophenyl)(p-tolyl)methyl)-2,5-dimethylpiperazin-1-yl)-5-methyl-6-oxo-5,6-dihydro-1,5-naphthyridine-2-carbonitrile]	1000	3100				EC50 (Human venous whole blood; [1]): 1900 nM
CC(C)c1ccc(C(C)N2C[C@H](C)N(c3cc(=O)n(C)c4ccc(C#N)nc34)C[C@H]2C)cc1 (single isomer, unassigned) [Example 1233]	100	290			380	
C[C@@H]1CN(c2c(C#N)c(=O)n(C)c3ccc(C#N)nc23)CCN1C(c1ccc(F)cc1)c1ncccc1F (single isomer, unassigned) [Example 893]			720	920		EC50 (Human venous whole blood; [4]): 1700 nM
C[C@@H]1CN(c2cc(=O)n(C)c3ccc(C#N)nc23)[C@@H](C)CN1C(c1ccc(F)cc1)c1nc(C2CN(C(=O)OC(C)(C)C)C2)no1 (single isomer, unassigned) [Example 756]			1900	190		EC50 (Human venous whole blood; [4]): 6000 nM
CC[C@@H]1CN(c2cc(=O)n(C)c3ccc(C#N)nc23)[C@@H](C)CN1C(c1ccc(OC(F)(F)F)cc1)C1CC1 (stereo partly drawn) [Example 1190]	5900	2300				EC50 (Human venous whole blood; [1]): 1200 nM
CC[C@@H]1CN(c2cc(=O)n(C)c3ccc(C#N)nc23)[C@@H](C)CN1C(C)c1ccc(OC(F)F)cc1 (stereo partly drawn) [Example 1344]	16	4.4			51	
C[C@@H]1CN(c2c(C#N)c(=O)n(C)c3ccc(C#N)nc23)[C@@H](C)CN1C(c1ccc(F)cc1)c1ccon1 (single isomer, unassigned) [Example 851]			27000	1300		EC50 (Human venous whole blood; [4]): 20000 nM
C[C@@H]1CN(c2c(C#N)c(=O)n(C)c3ccc(C#N)nc23)CCN1C(c1ccc(F)cc1)c1cccc2c1OC(F)(F)O2 (single isomer, unassigned) [Example 939]			4000	83000		EC50 (Human venous whole blood; [2]): 2600 nM
Cc1ccc(C(c2ncccc2F)N2CCN(c3c(C#N)c(=O)n(C)c4ccc(C#N)nc34)C[C@H]2C)cc1 (single isomer, unassigned) [Example 892]			1300	1800		EC50 (Human venous whole blood; [4]): 5000 nM
C[C@@H]1CN(c2c(C#N)c(=O)n(C)c3ccc(C#N)nc23)[C@@H](C)CN1C(c1ccc(F)cc1)c1csc(C2CC2)n1 (single isomer, unassigned) [Example 858]			150	480		EC50 (Human venous whole blood; [4]): 1700 nM
Cc1nccc(C(c2ccc(F)cc2)N2C[C@H](C)N(c3cc(=O)n(C)c4ccc(C#N)nc34)C[C@H]2C)n1 (single isomer, unassigned) [Example 401]	4500	7800			930	
C[C@@H]1CN(c2cc(=O)n(C)c3ccc(C#N)nc23)[C@@H](C)CN1C(c1ccc(F)cc1)c1cccc(C(F)(F)F)n1 (stereo partly drawn) [Example 678]	1500	3600			440	
CCc1ccccc1C(c1ccc(F)cc1)N1C[C@H](C)N(c2c(C#N)c(=O)n(C)c3ccc(C#N)nc23)C[C@H]1C (single isomer, unassigned) [Example 809]			2300	140000		EC50 (Human venous whole blood; [2]): 20000 nM
Cc1ccc(C(c2cccc(F)n2)N2C[C@H](C)N(c3cc(=O)n(C)c4ccc(C#N)nc34)C[C@H]2C)cc1 (single isomer, unassigned) [Example 478]	2400	2100				EC50 (Human venous whole blood; [1]): 3800 nM
C[C@@H]1CN(c2cc(=O)n(C)c3ccc(C#N)nc23)[C@@H](C)CN1C(c1ccc(F)cc1)c1nc(C2CC2)cs1 (single isomer, unassigned) [Example 701]	32	210			50	
CCC(c1ccc(OC(F)(F)F)cc1F)N1C[C@H](CC)N(c2cc(=O)n(C)c3ccc(C#N)nc23)C[C@H]1C (single isomer, unassigned) [Example 1377]	270	29			2000	
C[C@@H]1CN(c2cc(=O)n(C)c3ccc(C#N)nc23)[C@@H](C)CN1C(c1ccccc1)c1c(F)cccc1F (single isomer, unassigned) [Example 273, TFA]	15000	3800				EC50 (Human venous whole blood; normalized to 3 μM reference compound with anti-CD3 plus anti-CD28 as 100% activation, TFA): 7100 nM
CC(c1ccc(OC(F)(F)F)cc1)N1C[C@H](C)N(c2cc(=O)n(C)c3ccc(C#N)nc23)C[C@H]1CN1CCOCC1 (single isomer, unassigned) [Example 1415]	1800	19000			6900	
